# From US20100331384A1, “GUANIDINE BASED COMPOUNDS” (UNIVERSIDAD DEL PAIS VASCO/EUSKAL HERRIKO UNIBERTSITATEA, priority 2007, published 2010)
# “Also recorded” adds a separate entry of the source.
# How the values were obtained:
# [1] = test system: α2-ARs; conditions: previously described, reference 9; cited from earlier work
# [2] = target: α2-ARs; conditions: starred compounds, affinity reported in reference 9 by the same group; cited from earlier work
# [3] = target: T1, α2-ARs (Homo sapiens, UniProt P08913); experiment: [35S]GTPγS binding functional assay, compounds alone; assay type: biochemical; conditions: for Emax: read-out: Emax (%), percentage efficacy relative to UK14304; for agonistic or antagonistic properties in [35S]GTPγS experiments: human brain PFC; for stimulation of [35S]GTPγS binding by the compound on its own: human brain PFC membranes
# T1 construct: other: human brain tissue in vitro; other: stimulation of [35S]GTPγS b
# T1 sequence (P08913 whole entry): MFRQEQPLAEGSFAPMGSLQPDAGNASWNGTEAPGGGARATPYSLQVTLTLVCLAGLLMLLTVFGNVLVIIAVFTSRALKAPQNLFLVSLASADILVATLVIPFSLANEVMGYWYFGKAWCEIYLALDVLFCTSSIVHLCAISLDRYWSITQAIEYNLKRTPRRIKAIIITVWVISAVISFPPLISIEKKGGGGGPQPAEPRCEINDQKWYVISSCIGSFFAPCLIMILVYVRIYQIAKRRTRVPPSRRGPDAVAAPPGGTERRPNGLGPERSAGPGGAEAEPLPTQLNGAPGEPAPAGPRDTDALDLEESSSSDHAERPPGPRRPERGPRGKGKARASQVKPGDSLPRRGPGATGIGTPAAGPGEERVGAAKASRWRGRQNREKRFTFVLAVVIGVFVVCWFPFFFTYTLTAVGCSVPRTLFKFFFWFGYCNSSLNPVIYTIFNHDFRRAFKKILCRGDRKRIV
# Protocol: The [^35S]GTPγs binding assay constitutes a functional measure of the interaction of the receptor and the G-protein and is a useful tool to distinguish between agonists (increasing the nucleotide binding), inverse agonists (decreasing the nucleotide binding), and neutral antagonists (not affecting the nucleotide binding) of GPCRs.^20 Experiments were performed in low-affinity receptor conditions for agonists (presence of guanine nucleotides and sodium in the medium), and therefore, typical potency values are two-three logarithmic units lower than affinity values obtained in radioligand receptor binding experiments.^20
# (§1) Preparation of membranes. Neural membranes (P2 fractions) were prepared from the PFC of human brains obtained at autopsy in the Instituto Vasco de Medicina Legal, Bilbao, Spain. Postmortem human brain samples of each subject (˜1 g) were homogenized using a Teflon-glass grinder (10 up-and-down strokes at 1500 rpm) in 30 volumes of homogenization buffer (1 mM MgCl2, and 5 mM Tris-HCl, pH 7.4) supplemented with 0.25 M sucrose. The crude homogenate was centrifuged for 5 min at 1000×g ([…]) and the supernatant was centrifuged again for 10 min at 40000×g (4° C.). The resultant pellet was washed twice in 20 volumes of homogenization buffer and recentrifuged in similar conditions. Aliquots of 1 mg protein were stored at −70° C. until assay.
# [^35S]GTPγs binding assays. The incubation buffer for measuring [^35S]GTPγs binding to brain membranes contained, in a total volume of 500 μL, 1 mM EGTA, 3 mM MgCl2, 100 mM NaCl, […], 50 mM Tris-HCl at pH 7.4 and 0.5 nM [^35S]GTPγs. Proteins aliquots were thawed and re-suspended in the same buffer. The incubation was started by addition of the membrane suspension (40 μg of membrane proteins) to the previous mixture and was performed at 30° C. for 120 min with shaking. In order to evaluate the influence of the compounds on [^35S]GTPγs binding, 8 concentrations (10^−10 to 10^−3M) of the different compounds were added to the assay. Incubations were terminated by adding 3 mL of ice-cold re-suspension buffer followed by rapid filtration through Whatman GF/C filters pre-soaked in the same buffer. The filters were rinsed twice with 3 mL of ice-cold re-suspension buffer, transferred to vials containing 5 mL of OptiPhase HiSafe II cocktail (Wallac, UK) and the radioactivity trapped was determined by liquid scintillation spectrometry (Packard 2200CA). […] Non-specific binding of the radioligand was defined as the remaining [^35S]GTPγs binding in the presence of 10 μM unlabelled GTPγs.
# [4] = target: T1, α2-ARs; experiment: [3H]RX821002 competition binding assay in human brain PFC membranes; conditions: human brain tissue in vitro
# [5] = target: α2-ARs; experiment: as above; conditions: 31a vs 10b, 31b vs 17b
# Protocol: as §1
# [^3H]RX821002 binding assays. […] Incubations were terminated by diluting the samples with 5 ml of ice-cold Tris incubation buffer (4° C.). Membrane bound [^3H]RX821002 was separated by vacuum filtration through Whatman GF/C glass fibre filters. Then, the filters were rinsed twice with 5 ml of incubation buffer and transferred to minivials containing 3 ml of OptiPhase “HiSafe” II cocktail and counted for radioactivity by liquid scintillation spectrometry. Specific binding was determined and plotted as a function of the compound concentration. Non-specific binding was determined in the presence of adrenaline (10^−5 M).
# Analysis of binding data. Analysis of competition experiments to obtain the inhibition constant (Ki) were performed by nonlinear regression using the GraphPad Prism program. All experiments were analysed assuming a one-site model of radioligand binding. Ki values were normalized to pKi values.
# [6] = test system: extracellular NA levels in the PFC; experiment: In vivo microdialysis in the PFC, extracellular NA; design: species or system male Sprague Dawley rats; conditions: local administration by reverse dialysis 1-100 μM in PFC, percentage of basal values
# Excerpt: Intracerebral microdialysis is a neurochemical technique that has been applied extensively in pharmacological studies aimed at investigating the effect of different drugs on brain neurotransmission. This technique allows one to collect a representative concentration of different neurotransmitters of the area where the probe is implanted while the animals are awake and freely moving.^21
# Most antidepressant drugs are able to increase NA extracellular concentrations in different brain areas as the PFC, an area implicated in depression disease. Considering that α2-ARs exert a tonic inhibitory action on NA release from the noradrenergic terminals we assessed the ability of these two new compounds to increase NA extracellular concentration in this area. First, we tested the drugs when administered locally in order to confirm their antagonistic activity over α2-ARs in vivo.
# A second step was to study the effect of these compounds increasing NA extracellular concentrations when administered systemically.
# In Vivo Microdialysis assays. The experiments were carried out in male Sprague Dawley rats weighing between 250 g and 300 g. At the beginning of the experiments, animals were anaesthetized with chloral hydrate (400 mg/kg i.p.) and a microdialysis probe was implanted by stereotaxic surgery into prefrontal cortex (PFC) brain area. The coordinates selected for the PFC were as follows: AP (anterior to bregma) +2.8 mm, L (lateral from the mid-sagittal suture) +1 mm, DV (ventral from the dura surface) −5 mm.^22 After 24 hours for animal recovery, perfusion fluid (artificial cerebrospinal fluid) is pumped through the probe at a flow rate of 1 μl/min. In the semipermeable membrane, that is the critical side of the probe and is placed on the selected area, molecules flow into and out the cannulae by diffusion. Therefore, microdialysis technique allows local administration of substrates dissolved in the perfusion fluids.
# When drugs were locally administered, they were dissolved in a CSF and applied during 70 min via dialysis probe implanted in the PFC in increasing concentrations of 1, 10 and 100 μM. The compounds systemically administered were dissolved in saline and injected intraperitoneally.
# Samples, collected with the microdialysis procedure (every 35 min), were analyzed by HPLC with electrochemical detection. NA concentrations were monitorizated by an amperometric detector (Hewlett-Packard model 1049A) at an oxidizing potential of +650 mV. The movil phase (12 mM citric acid, 1 mM EDTA, 0.7 mM octylsodio sulfate, pH 5 and 10% methanol) was filtered, degassed (Hewlett-Packard model 1100 degasser) and delivered at a flow rate of 0.2 ml/min by a Hewlett-Packard model 1100 pump. Stationary phase was a column of 150×2.1 mm (Thermo Electron Corporation, U.S.A.). Samples (injection volume 37 μl) were injected and NA analized in a run time of 10 min. Solution of standard noradrenaline was injected every working day to create a new calibration table.
# The mean values of the first three samples before substrate administration were considered as 100% basal value. All measures of extracellular NA concentrations are expressed as percentage of the baseline value±s.e.mean. One way analysis of variance (ANOVA) for control group or two way ANOVA between control and each treated group was assessed for statistical analysis. After the experiments, rats were sacrificed with an overdose of chloral hydrate and the brains were dissected to check the correct implantation of the probe.
smiles,measurement,setting,value
c1cc2c(cc1NC1=NCCN1)OCO2 [Compound 3],"agonist or antagonist nature at α2-ARs, previously reported",[1],α2-AR antagonists; also recorded: antagonist
same,affinity values (pKi) for the α2-ARs,[2],7.33
N=C(N)Nc1ccc2c(c1)OCO2 [Compound 3b],affinity values (pKi) for the α2-ARs,[2],6.40
"c1ccc(Cc2ccc(NC3=NCCN3)cc2)cc1 [Compound 4b, 1-(2-imidazolidinyliminio)-4-benzylbenzene]",Emax,[3],111%
"Cc1ccc(NC2=NCCN2)cc1 [Compound 6b, 1-(2-imidazolidinylimino)-4-methylbenzene]",affinity towards the α2-ARs compared with references,[4],within the range of those of Idazoxan and/or Clonidine
same,agonistic or antagonistic properties in [35S]GTPγS experiments,[3],agonistic properties
same,stimulation of [35S]GTPγS binding by the compound on its own,[3],stimulated binding
same,Emax,[3],97%
"Cc1ccc(NC2=NCCN2)cc1C [Compound 8b, 1-(2-imidazolidinylimino)-3,4-dimethylbenzene]",affinity towards the α2-ARs compared with references,[4],within the range of those of Idazoxan and/or Clonidine
same,agonistic or antagonistic properties in [35S]GTPγS experiments,[3],agonistic properties
same,stimulation of [35S]GTPγS binding by the compound on its own,[3],stimulated binding
same,Emax,[3],89%
"c1cc2c(cc1NC1=NCCN1)CCCC2 [Compound 10b, imidazolidin-2-ylidene-(5,6,7,8-tetrahydro-naphthalen-2-yl)-amine]",affinity towards the α2-ARs compared with references,[4],within the range of those of Idazoxan and/or Clonidine
same,agonistic or antagonistic properties in [35S]GTPγS experiments,[3],agonistic properties
same,stimulation of [35S]GTPγS binding by the compound on its own,[3],stimulated binding
same,Emax,[3],100%
"c1cc2c(cc1NC1=NCCN1)Cc1ccc(NC3=NCCN3)cc1C2 [Compound 18b, 2,6-di(2-imidazolidinylimino)-9,10-dihydroanthracene]",affinity towards the α2-ARs compared with references,[4],within the range of those of Idazoxan and/or Clonidine
same,agonistic or antagonistic properties in [35S]GTPγS experiments,[3],agonistic properties
same,stimulation of [35S]GTPγS binding by the compound on its own,[3],did not stimulate binding
"N=C(N)Nc1ccc2c(c1)Cc1ccc(NC(=N)N)cc1C2 [Compound 21b, 2,6-diguanidino-9,10-dihydroanthracene]",affinity towards the α2-ARs compared with references,[4],within the range of those of Idazoxan and/or Clonidine
same,agonistic or antagonistic properties in [35S]GTPγS experiments,[3],agonistic properties
same,stimulation of [35S]GTPγS binding by the compound on its own,[3],did not stimulate binding
c1ccc(Nc2ccc(NC3=NCCN3)cc2)cc1 [Compound 25a],affinity values (pKi) for the α2-ARs,[2],6.56
N=C(N)Nc1ccc(Nc2ccccc2)cc1 [Compound 25b],affinity values (pKi) for the α2-ARs,[2],6.83
c1ccc(Oc2ccc(NC3=NCCN3)cc2)cc1 [Compound 26a],affinity values (pKi) for the α2-ARs,[2],6.58
N=C(N)Nc1ccc(Oc2ccccc2)cc1 [Compound 26b],affinity values (pKi) for the α2-ARs,[2],6.05
c1ccc(Sc2ccc(NC3=NCCN3)cc2)cc1 [Compound 27a],affinity values (pKi) for the α2-ARs,[2],6.62
N=C(N)Nc1ccc(Sc2ccccc2)cc1 [Compound 27b],affinity values (pKi) for the α2-ARs,[2],6.30
COc1ccc(NC2=NCCN2)cc1 [Compound 28a],affinity values (pKi) for the α2-ARs,[2],7.77
COc1ccc(NC(=N)N)cc1 [Compound 28b],affinity values (pKi) for the α2-ARs,[2],6.39
CSc1ccc(NC2=NCCN2)cc1 [Compound 29a],affinity values (pKi) for the α2-ARs,[2],7.07
CSc1ccc(NC(=N)N)cc1 [Compound 29b],affinity values (pKi) for the α2-ARs,[2],6.40
Nc1ccc(NC2=NCCN2)cc1 [Compound 30a],affinity values (pKi) for the α2-ARs,[2],6.92
N=C(N)Nc1ccc(N)cc1 [Compound 30b],affinity values (pKi) for the α2-ARs,[2],5.58
c1cc2c(cc1NC1=NCCN1)OCCO2 [Compound 31a],pKi higher than methylene containing counterpart,[5],0.52 logarithmic units
same,affinity values (pKi) for the α2-ARs,[2],7.85
N=C(N)Nc1ccc2c(c1)OCCO2 [Compound 31b],pKi higher than methylene containing counterpart,[5],1.10 logarithmic units
same,"agonist or antagonist nature at α2-ARs, previously reported",[1],agonist
same,affinity values (pKi) for the α2-ARs,[2],8.21
"c1ccc2c(c1)OCC(C1=NCCN1)O2 (stereo not shown) [Idazoxan, reference compound]",Emax of increase in extracellular NA levels,[6],235±42%
